The text below walks through data of patent US20160297833A1, “THIENOPYRIMIDINES AS MKNK1 AND MKNK2 INHIBITORS” (BAYER PHARMA AKTIENGESELLSCHAFT, priority 2013, published 2016).

The test deals with T1, human full-length MKNK1 (Homo sapiens, UniProt Q9BUB5, T385D).
T1 construct: GST (N); purchased Carna Biosciences 02-145; host or cells: insect cells (baculovirus expression system)
In words: MKNK1 kinase high ATP assay (TR-FRET). The format is biochemical. Conditions: Table 1; MKNK1 kinase high ATP assay, 2 mM ATP; read-out: MKNK1 IC50. Put shortly:
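Full-length human MKNK1 (T385D) preincubated 15 min at 22 °C with compound in HEPES pH 7.5/MgCl2/DTT buffer; reaction with 2 mM ATP (final) and 0.06 μM biotinylated peptide (final), 30 min at 22 °C.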

T1 sequence (Q9BUB5 1-424 isoform Q9BUB5-2 T344D): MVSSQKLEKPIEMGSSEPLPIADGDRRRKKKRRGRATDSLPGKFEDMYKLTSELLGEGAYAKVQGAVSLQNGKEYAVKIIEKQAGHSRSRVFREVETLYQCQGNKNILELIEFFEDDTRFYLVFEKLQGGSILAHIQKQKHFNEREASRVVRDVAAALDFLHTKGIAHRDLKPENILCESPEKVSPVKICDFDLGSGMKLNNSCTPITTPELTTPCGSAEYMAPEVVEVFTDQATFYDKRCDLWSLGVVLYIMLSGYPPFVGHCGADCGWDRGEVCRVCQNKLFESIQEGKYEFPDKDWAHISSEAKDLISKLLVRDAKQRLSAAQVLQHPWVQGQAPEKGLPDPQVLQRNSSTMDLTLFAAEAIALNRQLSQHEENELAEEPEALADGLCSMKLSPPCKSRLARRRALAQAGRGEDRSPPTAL

Consider `C[C@H](CNC(=O)OC(C)(C)C)Oc1cc2[nH]ncc2cc1Nc1ncnc2sc3c(c12)CC[C@H](C(=O)N(C)C)C3` [Example 259, tert-Butyl {(2R)-2-[(5-{[(7S)-7-(dimethylcarbamoyl)-5,6,7,8-tetrahydro[1]benzothieno[2,3-d]pyrimidin-4-yl]amino}-1H-indazol-6-yl)oxy]propyl}carbamate], for which the IC50 came to 14.5 nM.
As for `CC(C)OC(=O)NCCOc1cc2[nH]ncc2cc1Nc1ncnc2sc3c(c12)CC[C@H](C(=O)N(C)C)C3` [Example 260, Propan-2-yl {2-[(5-{[(7S)-7-(dimethylcarbamoyl)-5,6,7,8-tetrahydro[1]benzothieno[2,3-d]pyrimidin-4-yl]amino}-1H-indazol-6-yl)oxy]ethyl}carbamate], the IC50 stood at 0.2 nM.
Take `CC(C)OC(=O)NC[C@@H](C)Oc1cc2[nH]ncc2cc1Nc1ncnc2sc3c(c12)CC[C@H](C(=O)N(C)C)C3` [Example 261, Propan-2-yl {(2R)-2-[(5-{[(7S)-7-(dimethylcarbamoyl)-5,6,7,8-tetrahydro[1]benzothieno[2,3-d]pyrimidin-4-yl]amino}-1H-indazol-6-yl)oxy]propyl}carbamate]: the IC50 was 3.2 nM.
As to `CCOC(=O)NCCOc1cc2[nH]ncc2cc1Nc1ncnc2sc3c(c12)CC[C@H](C(=O)N(C)C)C3` [Example 262, Ethyl {2-[(5-{[(7S)-7-(dimethylcarbamoyl)-5,6,7,8-tetrahydro[1]benzothieno[2,3-d]pyrimidin-4-yl]amino}-1H-indazol-6-yl)oxy]ethyl}carbamate], the IC50 amounted to 0.2 nM.
With `CCOC(=O)NC[C@@H](C)Oc1cc2[nH]ncc2cc1Nc1ncnc2sc3c(c12)CC[C@H](C(=O)N(C)C)C3` [Example 263, Ethyl {(2R)-2-[(5-{[(7S)-7-(dimethylcarbamoyl)-5,6,7,8-tetrahydro[1]benzothieno[2,3-d]pyrimidin-4-yl]amino}-1H-indazol-6-yl)oxy]propyl}carbamate], the IC50 was 1.6 nM.
For `COC(=O)NC[C@@H](C)Oc1cc2[nH]ncc2cc1Nc1ncnc2sc3c(c12)CC[C@H](C(=O)N(C)C)C3` [Example 264, Methyl {(2R)-2-[(5-{[(7S)-7-(dimethylcarbamoyl)-5,6,7,8-tetrahydro[1]benzothieno[2,3-d]pyrimidin-4-yl]amino}-1H-indazol-6-yl)oxy]propyl}carbamate], the 50% inhibitory concentration (IC50) stood at 1.2 nM.
Next, `CN(C)C(=O)[C@H]1CCc2c(sc3ncnc(Nc4cc5cn[nH]c5cc4OC4CN(C(=O)OC(C)(C)C)C4)c23)C1` [Example 265, tert-Butyl 3-[(5-{[(7S)-7-(dimethylcarbamoyl)-5,6,7,8-tetrahydro[1]benzothieno[2,3-d]pyrimidin-4-yl]amino}-1H-indazol-6-yl)oxy]azetidine-1-carboxylate]: 0.9 nM; `C[C@@H]1CN(C(=O)[C@H]2CCc3c(sc4ncnc(Nc5cc6cn[nH]c6cc5OC5CN(C(=O)OC(C)(C)C)C5)c34)C2)C[C@H](C)O1` [Example 266, tert-Butyl 3-[(5-{[(7S)-7-{[(2R,6S)-2,6-dimethylmorpholin-4-yl]carbonyl}-5,6,7,8-tetrahydro[1]benzothieno[2,3-d]pyrimidin-4-yl]amino}-1H-indazol-6-yl)oxy]azetidine-1-carboxylate]: 0.9 nM; `C[C@H]1COCCN1C(=O)[C@H]1CCc2c(sc3ncnc(Nc4cc5cn[nH]c5cc4OC4CN(C(=O)OC(C)(C)C)C4)c23)C1` [Example 267, tert-Butyl 3-[(5-{[(7S)-7-{[(3S)-3-methylmorpholin-4-yl]carbonyl}-5,6,7,8-tetrahydro[1]benzothieno[2,3-d]pyrimidin-4-yl]amino}-1H-indazol-6-yl)oxy]azetidine-1-carboxylate]: 0.3 nM.
For the molecule `C[C@H]1COCCN1C(=O)[C@H]1CCc2c(sc3ncnc(Nc4cc5cn[nH]c5cc4OC4CNC4)c23)C1` [Example 268, [(7S)-4-{[6-(Azetidin-3-yloxy)-1H-indazol-5-yl]amino}-5,6,7,8-tetrahydro[1]benzothieno[2,3-d]pyrimidin-7-yl][(3S)-3-methylmorpholin-4-yl]methanone], the IC50 worked out at 0.6 nM.
Regarding `CCC(=O)NCCOc1cc2[nH]ncc2cc1Nc1ncnc2sc3c(c12)CC[C@H](C(=O)N(C)C)C3` [Example 269, (7S)—N,N-Dimethyl-4-({6-[2-(propanoylamino)ethoxy]-1H-indazol-5-yl}amino)-5,6,7,8-tetrahydro[1]benzothieno[2,3-d]pyrimidine-7-carboxamide], the 50% inhibitory concentration (IC50) worked out at 1.3 nM.
In the case of `CCCC(=O)NCCOc1cc2[nH]ncc2cc1Nc1ncnc2sc3c(c12)CC[C@H](C(=O)N(C)C)C3` [Example 270, (7S)-4-({6-[2-(Butanoylamino)ethoxy]-1H-indazol-5-yl}amino)-N,N-dimethyl-5,6,7,8-tetrahydro[1]benzothieno[2,3-d]pyrimidine-7-carboxamide], the IC50 turned out to be 1.1 nM.
Regarding `CC(C)CC(=O)NCCOc1cc2[nH]ncc2cc1Nc1ncnc2sc3c(c12)CC[C@H](C(=O)N(C)C)C3` [Example 271, (7S)—N,N-Dimethyl-4-[(6-{2-[(3-methylbutanoyl)amino]ethoxy}-1H-indazol-5-yl)amino]-5,6,7,8-tetrahydro[1]benzothieno[2,3-d]pyrimidine-7-carboxamide], the 50% inhibitory concentration (IC50) is 0.5 nM.
Next, `CN(C)C(=O)[C@H]1CCc2c(sc3ncnc(Nc4cc5cn[nH]c5cc4OCCNC(=O)CC(C)(C)C)c23)C1` [Example 272, (7S)-4-[(6-{2-[(3,3-Dimethylbutanoyl)amino]ethoxy}-1H-indazol-5-yl)amino]-N,N-dimethyl-5,6,7,8-tetrahydro[1]benzothieno[2,3-d]pyrimidine-7-carboxamide]: 1.3 nM; `CN(C)C(=O)[C@H]1CCc2c(sc3ncnc(Nc4cc5cn[nH]c5cc4OCCNC(=O)CC4CCCC4)c23)C1` [Example 273, (7S)-4-[(6-{2-[(Cyclopentylacetyl)amino]ethoxy}-1H-indazol-5-yl)amino]-N,N-dimethyl-5,6,7,8-tetrahydro[1]benzothieno[2,3-d]pyrimidine-7-carboxamide]: 0.4 nM.
As for `CN(C)C(=O)[C@H]1CCc2c(sc3ncnc(Nc4cc5cn[nH]c5cc4OCCNC(=O)CC4CCCCC4)c23)C1` [Example 274, (7S)-4-[(6-{2-[(Cyclohexylacetyl)amino]ethoxy}-1H-indazol-5-yl)amino]-N,N-dimethyl-5,6,7,8-tetrahydro[1]benzothieno[2,3-d]pyrimidine-7-carboxamide], the IC50 stood at 0.3 nM.
Turning to `CN(C)C(=O)[C@H]1CCc2c(sc3ncnc(Nc4cc5cn[nH]c5cc4OCCNCC(C)(C)C)c23)C1` [Example 275, (7S)-4-[(6-{2-[(2,2-Dimethylpropyl)amino]ethoxy}-1H-indazol-5-yl)amino]-N,N-dimethyl-5,6,7,8-tetrahydro[1]benzothieno[2,3-d]pyrimidine-7-carboxamide], the half-maximal inhibitory concentration (IC50) came to 4.4 nM.
With `CN(C)C(=O)[C@H]1CCc2c(sc3ncnc(Nc4cc5cn[nH]c5cc4OCCCN4CC(F)C4)c23)C1` [Example 276, (7S)-4-({6-[3-(3-Fluoroazetidin-1-yl)propoxy]-1H-indazol-5-yl}amino)-N,N-dimethyl-5,6,7,8-tetrahydro[1]benzothieno[2,3-d]pyrimidine-7-carboxamide], the IC50 was 10.2 nM.
